Source: patent publication US20230146455A1, “TREATMENT OF INFLAMMATORY DISEASES WITH PEPTIDES AND PHARMACEUTICAL COMPOSITIONS” (Yuyu Pharma, Inc., priority 2020, published 2023)
Values joined by “and” are separate entries in the source; they are usually repeats but may differ in a detail not shown here. Equal entries are not always repeated. Where a SMILES comes first, the peptide text is derived from it. [ ]: non-standard residue; d: D form. Hyp = O=C(O)[C@@H]1C[C@@H](O)CN1

Test system: CCL5/RANTES
Experiment: Example 9 Luminex, LPS hPBMCs: CCL5/RANTES
Assay type: cell-based, human
Method: Treatment Human PBMCs were pretreated with YY-101, YDE-011 and YDE-043 or reference compound; Xiidra® at various concentration (ranging from 1 nM to 100 uM) for 2 h before stimulation. An equal volume of 0.5% DMSO was used as a vehicle control. Then, the cells were treated with LPS at 5 ug/ml. The supernatants from treated cells were harvested at 24 h and placed in a 96 well for Luminex cytokine & chemokine profiling using a Luminex 200 multiplex assay (Luminex; R&D system, USA).
The main study arm with triplicate wells per group in a 24-well plate: • 1. Blank • 2. PBMC: 0.5% DMSO • 3. PBMC+LPS (5 ug/ml) • 4. PBMC+YY-101 100 uM • 5. PBMC+YY-101 10 uM • 6. PBMC+YY-101 1 uM • 7. PBMC+YY-101 0.1 uM • 8. PBMC+YY-101 0.01 uM • 9. PBMC+LPS (5 ug/ml)+Xiidra®100 uM • 10. PBMC+LPS (5 ug/ml)+Xiidra® 10 uM • 11. PBMC+LPS (5 ug/ml)+Xiidra® 1 uM • 12. PBMC+LPS (5 ug/ml)+Xiidra®0.1 uM • 13. PBMC+LPS (5 ug/ml)+Xiidra®0.01 uM • 14. PBMC+LPS (5 ug/ml)+Xiidra®0.001 uM • 15. PBMC+LPS (5 ug/ml)+YY-101 100 uM • 16. PBMC+LPS (5 ug/ml)+YY-101 10 uM • 17. PBMC+LPS (5 ug/ml)+YY-101 1 uM • 18. PBMC+LPS (5 ug/ml)+YY-101 0.1 uM • 19. PBMC+LPS (5 ug/ml)+YY-101 0.01 uM • 20. PBMC+LPS (5 ug/ml)+YY-101 0.001 uM • 21. PBMC+LPS (5 ug/ml)+YDE-011 100 uM • 22. PBMC+LPS (5 ug/ml)+YDE-011 10 uM • 23. PBMC+LPS (5 ug/ml)+YDE-011 1 uM • 24. PBMC+LPS (5 ug/ml)+YDE-011 0.1 uM • 25. PBMC+LPS (5 ug/ml)+YDE-011 0.01 uM • 26. PBMC+LPS (5 ug/ml)+YDE-011 0.001 uM • 27. PBMC+LPS (5 ug/ml)+YDE-043 100 uM • 28. PBMC+LPS (5 ug/ml)+YDE-043 10 uM • 29. PBMC+LPS (5 ug/ml)+YDE-043 1 uM • 30. PBMC+LPS (5 ug/ml)+YDE-043 0.1 uM • 31. PBMC+LPS (5 ug/ml)+YDE-043 0.01 uM • 32. PBMC+LPS (5 ug/ml)+YDE-043 0.001 uM
Multiplex assay was used to measure 30 cytokines and chemokines. The 1:2, 1:10 and 1:200 diluted cell supernatant and serial dilution of the standard were dispensed into a 96 well plate at 50 ul/well. Then, the pre-mixed cocktail of antibody-coated magnetic beads was dispensed at 50 ul/well and incubated at room temperature for 2 h in a horizontal orbital microplate shaker at 800±500 rpm. The beads were washed using a magnetic device to prevent loss. The biotin-antibody was dispensed in 50 ul of each well and incubated at room temperature for 1 h in a shaker at 800±500 rpm. After washing, streptavidin-PE was added at 50 ul/well and incubated at room temperature for 30 min in a shaker under the same conditions. Finally, after washing, wash buffer (100 ul/well) was added to the plate and incubated in a shaker for 2 min. The Luminex™ 200 setting were set according to the manufacturer's protocol. The data was calculated with a standard five-parameter logistic nonlinear regression analysis of the data (xPonent software 4.2, USA). The levels of cytokine/chemokine are normalized to the live cell counts (1×10^5 cells/mL) and presented as concentrations per mL (pg/mL or ng/mL).

[1] = PBMC + LPS(5 ug/ml), test article 0.001 uM, Mean
[2] = PBMC + LPS(5 ug/ml), test article 0.001 uM, single replicates (1st, 2nd, 3rd)
[3] = PBMC + LPS(5 ug/ml), test article 0.01 uM, Mean
[4] = PBMC + LPS(5 ug/ml), test article 0.01 uM, single replicates (1st, 2nd, 3rd)
[5] = PBMC + LPS(5 ug/ml), test article 0.1 uM, Mean
[6] = PBMC + LPS(5 ug/ml), test article 0.1 uM, single replicates (1st, 2nd, 3rd)
[7] = PBMC + LPS(5 ug/ml), test article 1 uM, Mean
[8] = PBMC + LPS(5 ug/ml), test article 1 uM, single replicates (1st, 2nd, 3rd)
[9] = PBMC + LPS(5 ug/ml), test article 10 uM, Mean
[10] = PBMC + LPS(5 ug/ml), test article 10 uM, single replicates (1st, 2nd, 3rd)
[11] = PBMC + LPS(5 ug/ml), test article 100 uM, Mean
[12] = PBMC + LPS(5 ug/ml), test article 100 uM, single replicates (1st, 2nd, 3rd)
[13] = PBMC without LPS, test article 0.01 uM, Mean
[14] = PBMC without LPS, test article 0.01 uM, single replicates (1st, 2nd)
[15] = PBMC without LPS, test article 0.1 uM, Mean
[16] = PBMC without LPS, test article 0.1 uM, single replicates (1st, 2nd)
[17] = PBMC without LPS, test article 1 uM, Mean
[18] = PBMC without LPS, test article 1 uM, single replicates (1st, 2nd)

`CC(C)C[C@H](NC(=O)CNC(=O)[C@H](CC(=O)O)NC(=O)[C@H](CCC(N)=O)NC(=O)CNC(=O)[C@@H]1C[C@@H](O)CN1)C(=O)N[C@@H](C)C(=O)NCC(=O)N1CCC[C@H]1C(=O)N[C@@H](CCCCN)C(=O)O` [YY-101] (H-[Hyp]GQDGLAGPK-OH; N-terminus and C-terminus assumed) was tested, and the “Concentration (CCL5/RANTES)” value [1] was 402.3 pg/mL, the “MFI (Bead name: CCL5/RANTES)” value [1] was 1103.2 and the “conc/live cell (CCL5/RANTES)” value [1] was 62.7 pg/10^5. For the same compound, the “Concentration (CCL5/RANTES)” value [2] was 407.4 pg/mL and 412.9 pg/mL and 386.6 pg/mL, the “MFI (Bead name: CCL5/RANTES)” value [2] was 1120.5 and 1139.5 and 1049.5 and the “conc/live cell (CCL5/RANTES)” value [2] was 71.5 pg/10^5 and 58.2 pg/10^5 and 58.6 pg/10^5. For the same compound, the “Concentration (CCL5/RANTES)” value [3] was 454.1 pg/mL, the “MFI (Bead name: CCL5/RANTES)” value [3] was 1281.8 and the “conc/live cell (CCL5/RANTES)” value [3] was 73.6 pg/10^5. The “Concentration (CCL5/RANTES)” value [4] was 476.2 pg/mL and 443.9 pg/mL and 442.2 pg/mL, the “MFI (Bead name: CCL5/RANTES)” value [4] was 1358.5 and 1246.5 and 1240.5 and the “conc/live cell (CCL5/RANTES)” value [4] was 74.4 pg/10^5 and 74.0 pg/10^5 and 72.5 pg/10^5. The “Concentration (CCL5/RANTES)” value [5] was 428.0 pg/mL, the “MFI (Bead name: CCL5/RANTES)” value [5] was 1191.5 and the “conc/live cell (CCL5/RANTES)” value [5] was 73.5 pg/10^5. For the same compound, the “Concentration (CCL5/RANTES)” value [6] was 432.4 pg/mL and 427.1 pg/mL and 424.5 pg/mL, the “MFI (Bead name: CCL5/RANTES)” value [6] was 1206.5 and 1188.5 and 1179.5 and the “conc/live cell (CCL5/RANTES)” value [6] was 69.7 pg/10^5 and 82.1 pg/10^5 and 68.5 pg/10^5. For the same compound, the “Concentration (CCL5/RANTES)” value [7] was 430.6 pg/mL, the “MFI (Bead name: CCL5/RANTES)” value [7] was 1200.7 and the “conc/live cell (CCL5/RANTES)” value [7] was 66.2 pg/10^5. For the same compound, the “Concentration (CCL5/RANTES)” value [8] was 456.2 pg/mL and 419.3 pg/mL and 416.4 pg/mL, the “MFI (Bead name: CCL5/RANTES)” value [8] was 1289.0 and 1161.5 and 1151.5 and the “conc/live cell (CCL5/RANTES)” value [8] was 72.4 pg/10^5 and 59.1 pg/10^5 and 67.2 pg/10^5. For the same compound, the “Concentration (CCL5/RANTES)” value [9] was 430.1 pg/mL, the “MFI (Bead name: CCL5/RANTES)” value [9] was 1198.8 and the “conc/live cell (CCL5/RANTES)” value [9] was 65.2 pg/10^5. For the same compound, the “Concentration (CCL5/RANTES)” value [10] was 422.8 pg/mL and 449.1 pg/mL and 418.4 pg/mL, the “MFI (Bead name: CCL5/RANTES)” value [10] was 1173.5 and 1264.5 and 1158.5 and the “conc/live cell (CCL5/RANTES)” value [10] was 70.5 pg/10^5 and 70.2 pg/10^5 and 55.1 pg/10^5. For the same compound, the “Concentration (CCL5/RANTES)” value [11] was 336.7 pg/mL, the “MFI (Bead name: CCL5/RANTES)” value [11] was 881.7 and the “conc/live cell (CCL5/RANTES)” value [11] was 58.5 pg/10^5. For the same compound, the “Concentration (CCL5/RANTES)” value [12] was 334.7 pg/mL and 330.4 pg/mL and 345.1 pg/mL, the “MFI (Bead name: CCL5/RANTES)” value [12] was 875.0 and 860.5 and 909.5 and the “conc/live cell (CCL5/RANTES)” value [12] was 53.1 pg/10^5 and 53.3 pg/10^5 and 69.0 pg/10^5. For the same compound, the “Concentration (CCL5/RANTES)” value [13] was 36.8 pg/mL, the “MFI (Bead name: CCL5/RANTES)” value [13] was 52.0 and the “conc/live cell (CCL5/RANTES)” value [13] was 7.4 pg/10^5. The “Concentration (CCL5/RANTES)” value [14] was 27.5 pg/mL and 46.1 pg/mL, the “MFI (Bead name: CCL5/RANTES)” value [14] was 37.5 and 66.5 and the “conc/live cell (CCL5/RANTES)” value [14] was 5.3 pg/10^5 and 9.6 pg/10^5. The “Concentration (CCL5/RANTES)” value [15] was 36.2 pg/mL, the “MFI (Bead name: CCL5/RANTES)” value [15] was 50.5 and the “conc/live cell (CCL5/RANTES)” value [15] was 7.1 pg/10^5. For the same compound, the “Concentration (CCL5/RANTES)” value [16] was 31.7 pg/mL and 40.7 pg/mL, the “MFI (Bead name: CCL5/RANTES)” value [16] was 43.5 and 57.5 and the “conc/live cell (CCL5/RANTES)” value [16] was 7.2 pg/10^5 and 7.0 pg/10^5. For the same compound, the “Concentration (CCL5/RANTES)” value [17] was 35.3 pg/mL, the “MFI (Bead name: CCL5/RANTES)” value [17] was 49.0 and the “conc/live cell (CCL5/RANTES)” value [17] was 6.4 pg/10^5. The “Concentration (CCL5/RANTES)” value [18] was 33.0 pg/mL and 37.6 pg/mL, the “MFI (Bead name: CCL5/RANTES)” value [18] was 45.5 and 52.5 and the “conc/live cell (CCL5/RANTES)” value [18] was 6.0 pg/10^5 and 6.8 pg/10^5.
